Test system: HUVECs
Assay: vascular network in HUVEC/iCasp9-HDF microfluidic devices after fibroblast removal (dextran perfusion)
Type: cell-based, human
Protocol: More specifically, the molds for the 2-channel microfluidic devices were constructed using stereolithography (Proto Labs). Polydimethylsiloxane (PDMS) was cured at a standard mixing ratio overnight at 60° C. in the mold, and individual devices were cut and plasma-bonded to glass slides. To enhance ECM bonding to PDMS, the surface inside the tissue chamber of the devices was functionalized with 0.01% poly-L-lysine and 1% glutaraldehyde following plasma-activation and washed overnight in DI water. On the day of seeding, devices were soaked in 70% ethanol (EtOH) and dried. Acupuncture needles (300 μm diameter) (Hwato) were blocked in 0.1% (w/v) bovine serum albumin (BSA) (Sigma) in phosphate buffer saline (PBS) for 45 minutes and inserted through the two needle guides. Devices with needles were UV-sterilized for 15 minutes. Once the needles were inserted, a fibrinogen solution containing human umbilical vein endothelial cells (HUVECs) and growth-arrested human dermal fibroblasts (HDFs) were added into the tissue chamber with thrombin. To prepare the cells for seeding, HDFs or iCasp-9 HDFs were growth-arrested with 10 μg/mL mitomycin in FGM-2 for 2.5 hours and thoroughly washed 5 times in FBM. Both HUVECs and HDFs were lifted from culture plates using TrypLE Express (Gibco), centrifuged at 200 g for 4 minutes, and resuspended to a concentration of 20 million cells/mL in EGM-2. A solution of HUVECs (3 million cells/mL), HDFs or iCasp-9 HDFs (0, 1 million, 3 million, or 6 million cells/mL), fibrinogen (2.5 mg/mL), thrombin (1 U/mL) in EGM-2 was prepared for the bulk hydrogel region of each device. After the addition of thrombin, the solution was quickly injected into the tissue chamber, and the devices were repeatedly rotated while the solution crosslinked. Appropriate media was added to each well of the device, and the devices were placed in the incubator (37° C., 5% CO2). After 15 minutes, the needles were carefully removed from the devices to create 300 μm hollow channels between the wells. Each channel of the device was seeded with additional HUVECs at 2 million cells/ml for at least 5 minutes on each side (top and bottom) in the incubator. Each device received 200 μl of appropriate media daily and cultured on the rocker inside the incubator. Once the fibrinogen polymerized into fibrin, the needles were removed to create two hollow, microfluidic channels. These channels were then seeded with additional HUVECs to line the walls in a monolayer.
Vessel networks were analyzed by fixing all devices with 4% PFA for 30 minutes on a rocker and washing with PBS overnight at 4° C. The devices were then blocked in 3% BSA overnight at 4° C. Lectin (UEA DyLight 649, Vector Labs) was diluted in the blocking solution at 1:100 dilution and added to the devices for another 4° C. overnight incubation. Devices were then washed overnight with PBS at 4° C. and kept in PBS with 0.02% (w/v) sodium azide at 4° C. until imaging. Before imaging, a solution of 500 kDa fluorescein isothiocyanate (FITC)- or tetramethylrhodamine isothiocyanate (TRITC)-conjugated dextran (0.15 mg/ml) was added to one of the microfluidic channels to generate gravity-driven hydrostatic pressure between the two channels of the device. All device images were then captured by a Leica SP8 confocal microscope (Leica, Wetzlar, Germany) using either a Leica 10×/0.30NA W U—V-I WD-3.60 Water or 25×/0.95NA W VISIR WD-2.50 Water objective and Leica LAS X imaging software. […]

acute effects on HUVECs / noticeable deterioration of the vascular structure (10 nM CID after 7 days of co-culture): not observed
Compound: CC[C@H](C(=O)N1CCCC[C@H]1C(=O)O[C@H](CCc1ccc(OC)c(OC)c1)c1cccc(OCC(=O)NCC(CNC(=O)COc2cccc([C@@H](CCc3ccc(OC)c(OC)c3)OC(=O)[C@@H]3CCCCN3C(=O)[C@@H](CC)c3cc(OC)c(OC)c(OC)c3)c2)CN(C)C)c1)c1cc(OC)c(OC)c(OC)c1 [CID, AP20187]
dextran transport of endothelial network at day 7 (50 nM CID at day 0): none of these structures could transport dextran
perfusion of endothelial network at day 7 (50 nM CID at day 1): little to no perfusion
endothelial network at day 7 (50 nM CID at day 3 or day 5): highly interconnected and perfusable endothelial networks
average diameter of the perfused vessels versus control (all conditions except day 0 deletion): comparable
